The results in this text go back to patent publication US20230125380A1, “Topical Compositions Comprising IRAK4 Inhibitors for Use in Treating Dermatological Conditions Characterised by Inflammation” (Dermira, Inc., priority 2019, published 2023).

In experiment [1] the test system is human surgical skin (skin resident immune cells), LPS. Description: skin Resident Immune Cell Assay (sRICA), topical screening, TNFα protein expression. Type of experiment: cell-based. To be noted: mean TNFα level in LPS treated samples set to 100%. On the procedure:
A skin Resident Immune Cell Assay (sRICA) was used to test compounds for reduction of inflammation. In this model, human surgical skin waste was cultured in a transwell system, with the dermis in contact with cell culture media and the stratum corneum exposed to air. To perform the assay, each human skin sample was defatted and dermatomed to 750 μm. Next, 8 mm punch biopsies were obtained and placed in a membrane transwell. The transwells were inserted into culture wells with complete media, and a cocktail of cytokines and antibodies were added to promote skin resident immune cell polarization. The transwells were treated with LPS as a positive control, a vehicle as a negative control, and various dual IRAK/TrkA inhibitors. TNFα protein expression was measured and the mean TNFa protein level in the LPS treated samples was set to 100%.
Overall results for all tested compounds are summarized below in Table 1. Results are expressed as a percentage of TNFα expression relative to the LPS treated sample.

Experiment [2] deals with rosacea lesional (LS) skin. As to the kind of experiment: OLink proteomics of treated lesional papulopustular rosacea biopsies. Type of experiment: cell-based, human. To be noted: LS rosacea biopsy. As for the experimental part: (§1) Five patients with mild-moderate, untreated, papulopustular rosacea (PPR) were enrolled and completed the study. Each patient donated 3 punch biopsies: 1 non-lesional (NL) and 2 lesional (LS) papules. Each biopsy was bisected, resulting in a total of 6 biopsy pieces. NL tissue was left untreated. LS tissue was either left untreated (vehicle), treated with a dual IRAK/TrkA inhibitor according to the present disclosure (1 uM or […]) or clobetasol (1 uM). Tissue was cultured in media at 37 C, 5% CO2 for 24 hours. After culture, the tissue was submerged in RNAlater for subsequent RNA isolation and RNA seq, and conditioned cell media was collected into 2×500 ul aliquots for proteomic analysis.
Proteomic analysis included use of the OLink platform. OLink proteomics, includes immunoassay, extension, preamplification, and detection by microfluidic qPCR, and has a high multiplex ability, but not absolute quantification of protein (only relative expression).
For the OLink proteomics platform, 40 μl of conditioned cell media was sent to OLINK proteomics for evaluation on their human Inflammation Panel (92 proteins):
Protein expression was measured from NL samples, untreated LS samples, and LS samples treated with the compound of Formula (Ia) at 1 μM, the compound of Formula (Ia) at 0.5 μM, or clobetasol at 1 μM. […] CXCL1, β-NGF, LIF, TGF-alpha, IL-8, and IL-6 are all proteins that have reduced expression in NL compared to LS samples.

In experiment [3] the test system is rosacea lesional (LS) skin. As to the kind of experiment: RNAseq of treated lesional papulopustular rosacea biopsies. Type of experiment: cell-based, human. Conditions: LS rosacea biopsy, 24 hours culture, 1 μM and 0.5 μM. On the procedure:
Five patients with mild-moderate, untreated, papulopustular rosacea (PPR) were enrolled and completed the study. Each patient donated 3 punch biopsies: 1 non-lesional (NL) and 2 lesional (LS) papules. Each biopsy was bisected, resulting in a total of 6 biopsy pieces. NL tissue was left untreated. […] Tissue was cultured in media at 37 C, 5% CO2 for 24 hours. After culture, the tissue was submerged in RNAlater for subsequent RNA isolation and RNA seq, and conditioned cell media was collected into 2×500 ul aliquots for proteomic analysis.
MMP-1 results are shown in FIG. 4A (RNAseq) and FIG. 4B (OLink); CXCL5 results are shown in FIG. 5A (RNAseq) and FIG. 5B (OLink); and IL-1(3 results are shown in FIG. 6A (RNAseq) and FIG. 6B (OLink).

Experiment [4] relates to rosacea lesional (LS) skin. As to the kind of experiment: MesoScale Discovery (MSD) immunoassay of treated lesional papulopustular rosacea biopsies. Type of experiment: cell-based, human. As for the experimental part:
as §1
Next, the protein expression results obtained using the OLink platform were verified using MesoScale Discovery (MSD). MSD involves coating of carbon electrodes with multiple capture antibodies each coated onto discrete spots in the same plate, and is a multiplex platform that allows for absolute quantification of protein expression, as measured in pg/mL. For MSD quantification, 150 μl of conditioned cell media was analyzed using MSD platform using the human Cytokine 30-plex kit:
The protein expression analysis was repeated using the MSD platform.

[5] abbreviates: 24 hours following treatment, 1 μM and 0.5 μM.

Take `Cn1cc(NC(=O)c2coc(-c3ccnc(NCC(F)F)c3)n2)c(N2CCN(CCO)C2=O)n1`: in experiment [1], the “TNFα Protein Expression (% relative to positive control)” value is 72.75%.

As to `CC1(C)CCN(c2nn(C3COC3)cc2NC(=O)c2coc(-c3ccnc(NCC(F)(F)F)c3)n2)C1=O`, the “TNFα Protein Expression (% relative to positive control)” value in experiment [1] is listed as 97.84%.

Turning to `Cn1cc(NC(=O)c2coc(-c3ccnc(NCC(F)(F)F)c3)n2)c(N2CCNC2=O)n1`, in experiment [1], the “TNFα Protein Expression (% relative to positive control)” value came to 59.13%.

`Cn1cc(NC(=O)c2coc(-c3ccnc(NCC(F)(F)F)c3)n2)c(N2CC(CNC3CC3)C(C)(C)C2=O)n1` (centres unmarked): the “TNFα Protein Expression (% relative to positive control)” value in experiment [1] is reported as 72.95%.

Regarding `C=C(CC1=CC(C)C=C1C1CCC(CCC)C1=C)C1=CCC(c2cccc(CCC(C)(C)C)c2)=C1` (centres unmarked), the “TNFα Protein Expression (% relative to positive control)” value in experiment [1] was 64.03%.

Turning to `CN(C)CC1CN(c2nn(C)cc2NC(=O)c2coc(-c3ccnc(NCC(F)(F)F)c3)n2)C(=O)C1(C)C` (centres unmarked), the “TNFα Protein Expression (% relative to positive control)” value in experiment [1] was found to be 86.94%.

In the case of `Cn1cc(NC(=O)c2coc(-c3ccnc(NCC4CC4)c3)n2)c(N2CCN(CCO)C2=O)n1`, the “TNFα Protein Expression (% relative to positive control)” value in experiment [1] was 74.41%.

For `CC(C)N1CCN(c2nn(C)cc2NC(=O)c2coc(-c3ccnc(NCC(F)(F)F)c3)n2)C1=O`, the “TNFα Protein Expression (% relative to positive control)” value in experiment [1] is reported as 90.44%.

For the compound `CC1C=C(CC(=O)c2coc(-c3ccnc(NCC(F)(F)F)c3)c2)C(C2CC(C)[C@H](C)C2=O)=C1` (some centres unmarked), the “TNFα Protein Expression (% relative to positive control)” value in experiment [1] turned out to be 67.49%.

As for `CNCC1CN(c2nn(C)cc2NC(=O)c2coc(-c3ccnc(NCC(F)(F)F)c3)n2)C(=O)C1(C)C` (centres unmarked) [drawing 29], in experiment [1], the “TNFα Protein Expression (% relative to positive control)” value is 92.45%.

Take `CC(C)CN1CCN(c2nn(C)cc2NC(=O)c2coc(-c3ccnc(NCC(F)(F)F)c3)n2)C1=O`: the “TNFα Protein Expression (% relative to positive control)” value in experiment [1] is listed as 89.24%.

As to `C[C@H]1CCN(c2nn(C)cc2NC(=O)c2coc(-c3ccnc(NCC(F)(F)F)c3)n2)C1=O`, in experiment [1], the “TNFα Protein Expression (% relative to positive control)” value worked out at 92.45%.

For `Cn1cc(NC(=O)c2coc(-c3ccnc(NCC(F)(F)F)c3)n2)c(N2CCN(CCO)C2=O)n1` [Formula (Ia)], in experiment [2] (24 hours following treatment), the “CXCL6 protein expression (OLink)” value is “decreased expression”, the “IL-24 protein expression (OLink)” value was “decreased expression”, the “MCP-1 protein expression (OLink)” value is “decreased expression” and the “NRTN protein expression (OLink)” value is given as “decreased expression”. Besides, in experiment [2] (setting [5]), the “CXCL1 protein expression (OLink)” value is reported as “statistically significant decrease in expression”, the “IL-6 protein expression (OLink)” value was “statistically significant decrease in expression”, the “IL-8 protein expression (OLink)” value is on record as “statistically significant decrease in expression” and the “LIF protein expression (OLink)” value is “statistically significant decrease in expression”. For the same compound, in experiment [2] (setting [5]), the “TGF-alpha protein expression (OLink)” value is “statistically significant decrease in expression” and the “β NGF protein expression (OLink)” value is on record as “statistically significant decrease in expression”. In experiment [2] (24 hours, 1 μM and 0.5 μM), the “CXCL5 protein expression (OLink)” value is reported as “downregulated” and the “MMP-1 protein expression (OLink)” value is listed as “downregulated”. Moreover, in experiment [3], the “CXCL5 RNA expression (RNAseq)” value is recorded as “significantly downregulated”, the “IL-1β RNA expression (RNAseq)” value is reported as “significantly downregulated” and the “MMP-1 RNA expression (RNAseq)” value was “significantly downregulated”. In experiment [4] (compared with NL and LS profiles), the “protein expression profile (MSD)” value is on record as “more similar to the NL profile versus the LS profile”. Moreover, in experiment [4] (p=0.002), the “IL-10 protein expression (MSD)” value was “decreased expression”. Further, the “IL-8 protein expression (MSD)” value in experiment [4] (p=0.056) is “decreased expression”. Besides, in experiment [4] (p=0.09), the “MCP-1 protein expression (MSD)” value is “decreased expression”. In experiment [4] (p=0.12), the “IL-4 protein expression (MSD)” value is “decreased expression”. The “IL-6 protein expression (MSD)” value in experiment [4] (p=0.13) is given as “decreased expression”. Moreover, in experiment [4] (p=0.2), the “IL-5 protein expression (MSD)” value is on record as “decreased expression”.

With `CNCC1CN(c2nn(C)cc2NC(=O)c2coc(-c3ccnc(NCC(F)(F)F)c3)n2)C(=O)C1(C)C` (centres unmarked) [drawing 30], the “TNFα Protein Expression (% relative to positive control)” value in experiment [1] came out at 93.64%.
